Experiments:
HCV RNA polymerase = molecular target: T1, HCV RNA polymerase (Hepatitis C virus genotype 1b, UniProt Q9WMX2); assay: Inhibitory effect on HCV RNA polymerase activity ([α-32P]UTP incorporation, poly(A)/oligo(U)); format: biochemical; settings: 10 uM UTP, 30° C. for 30 minutes; read-out: 50% inhibitory concentration for HCV RNA polymerase
T1 construct: Expression and purification of HCV RNA polymerase were performed in accordance with known processes; made in house
Experimental: Inhibitory effect on an HCV RNA polymerase activity of the compounds of Synthetic Example 12, Synthetic Example 13, Synthetic Example 19, Synthetic Example 21 and Synthetic Example 22 described above was measured by the following process.
Expression and purification of HCV RNA polymerase were performed in accordance with known processes (V. Lohman et al., VIROLOGY, 249, 108-118, 1998).
The purified HCV RNA polymerase in an amount of 200 ng was mixed with 100 ng/mL poly(A)RNA (polyadenine RNA) as a template RNA and 25 ng/mL 15-mer oligo(U)RNA (oligouridine having 15 bases, TAKARA Shuzo) as a primer RNA in 50 μL of an aqueous solution containing 20 mM Tris-Cl (pH 7.5), 5 MM MgCl2, 25 mM KCl, 10 uM UTP (Uridine-triphosphate), 0.25 Ci/mL [α-^32P]UTP (Amersham, PB10203). Then, thereto was added the compound of Synthetic Example 12, Synthetic Example 13, Synthetic Example 19, Synthetic Example 21 or Synthetic Example 22, followed by an RNA synthetic reaction at 30° C. for 30 minutes.
After completing the reaction, RNA in the solution was absorbed on DE81 paper (Whattman). Then, [α-^32P]UTP which was not incorporated into the synthesized RNA was washed out with 0.5 M phosphate buffer, and the quantity of [α-^32P]UTP which was incorporated into the synthesized RNA on the DE81 paper was determined on a liquid scintillation counter.
Inhibitory potency of the compounds of Synthetic Example 12, Synthetic Example 13, Synthetic Example 19, Synthetic Example 21 and Synthetic Example 22 was represented by 50% inhibitory concentration when the negative control without HCV RNA polymerase was assumed as 0% while the positive control without the compound was assumed as 100%.

MT-2C cells = assay: Yield of total cellular RNA of HCV-infected MT-2C cells (cell injury); format: cell-based, human; settings: 0.1-10 μM compound, 7 days culture
Experimental: MT-2C cells that are cells derived from human T cells (Kato, N. et. al., Biochem. Biophs. Res. Commun. 206, 863-869, 1995) were cultured in an RPMI 1640 medium (Gibco-BRL 11875-101) supplemented with FBS (Foetal Bovine Serum, Gibco-BRL10082-147) at 10%. Thus cultured MT-2C cells (1×10^6 cells) were suspended in 200 uL of an F-12 medium (Gibco-BRL 11059-029) added with EDTA (ethylenediamine tetraacetic acid) to yield final concentration of 5 mM. Thereto was added 20 μL of a serum derived from a hepatitis C patient, followed by infection at 37° C. for 2 hours. After the infection, the cells were washed three times with 1 mL of PBS (Phosphate buffered saline), suspended in 6 mL of an RPMI medium added with FBS at 10%. The suspended cells were seeded on a 48 well culture plate, and incubated in a CO2 incubator at 32° C. for 3 days. Thereto was added the compound of Synthetic Example 1, Synthetic Example 2, Synthetic Example 10 or Synthetic Example 11 dissolved in DMSO (Dimethyl Sulfoxide) in an amount of thousandths of the medium, and the mixture was cultured for 3 days. A medium adjusted to have the same concentration of the identical compound was added to each well in a two-fold volume, followed by an additional culture for 4 days. Cells were harvested for each of the samples, and total cellular RNA was purified. For the RNA purification, ISOGEN (NIPPON GENE, 311-02501) was used. In order to quantitatively determine an HCV RNA genome in the purified RNA, the following operation was carried out.

Hepatitis C Virus (HCV) = assay: Inhibitory effect on HCV proliferation in infected MT-2C cells (nested RT-PCR detection limit dilution of HCV genome); format: cell-based; settings: for detection of HCV genome in diluted RT product: FIG. 2, negative control detected up to 10-fold or 30-fold dilution
Experimental: Inhibitory effect on HCV proliferation of the compounds of Synthetic Example 1, Synthetic Example 2, Synthetic Example 10 and Synthetic Example 11 described above was measured by the following process.
Measurement of anti HCV proliferation inhibitory activity was performed in accordance with a known process (Kato, N. et. al., Biochem. Biophs. Res. Commun. 206, 863-869, 1995).
MT-2C cells that are cells derived from human T cells (Kato, N. et. al., Biochem. Biophs. Res. Commun. 206, 863-869, 1995) were cultured in an RPMI 1640 medium (Gibco-BRL 11875-101) supplemented with FBS (Foetal Bovine Serum, Gibco-BRL10082-147) at 10%. Thus cultured MT-2C cells (1×10^6 cells) were suspended in 200 uL of an F-12 medium (Gibco-BRL 11059-029) added with EDTA (ethylenediamine tetraacetic acid) to yield final concentration of 5 mM. Thereto was added 20 μL of a serum derived from a hepatitis C patient, followed by infection at 37° C. for 2 hours. After the infection, the cells were washed three times with 1 mL of PBS (Phosphate buffered saline), suspended in 6 mL of an RPMI medium added with FBS at 10%. The suspended cells were seeded on a 48 well culture plate, and incubated in a CO2 incubator at 32° C. for 3 days.
Thereto was added the compound of Synthetic Example 1, Synthetic Example 2, Synthetic Example 10 or Synthetic Example 11 dissolved in DMSO (Dimethyl Sulfoxide) in an amount of thousandths of the medium, and the mixture was cultured for 3 days. A medium adjusted to have the same concentration of the identical compound was added to each well in a two-fold volume, followed by an additional culture for 4 days. Cells were harvested for each of the samples, and total cellular RNA was purified. For the RNA purification, ISOGEN (NIPPON GENE, 311-02501) was used. In order to quantitatively determine an HCV RNA genome in the purified RNA, the following operation was carried out.
Using 1 μg of the purified RNA, a reverse transcription reaction was performed in a total volume of 20 uL at 37° C. for 1 hour. Subsequently, an inactivation treatment of the reverse transcriptase was carried out at 100° C. for 30 minutes. SuperScript™ II (Gibco BRL 18064-014) was used as a reverse. transcriptase, and an oligoDNA (Gibco BRL) having 20 bases which are complementary to the sequence of base position 317 through base position 336 of HCV-J strain (Kato, N. et. al. Proc. Natl. Acad. Sci. USA 87, 9524-9528, 1990) was used as a primer.
Product of the reverse transcription reaction was diluted to 3-fold, 10-fold, 30-fold and 100-fold with sterilized and distilled water. First PCR (Polymerase Chain Reaction), (34 cycles of: at 94° C. for 1 minute, at 58° C. for 45 seconds and at 72° C. for 1 minute; and 1 cycle of: at 94° C. for 1 minute, at 58° C. for 1 minute and 40 seconds and at 72° C. for 8 minutes) was performed in a total volume of 50 μL using 3 μL of the diluted product of the reverse transcription reaction. EX-Taq (TAKARA RR001A) was used as a DNA synthetase, while an oligoDNA (GibcoBRL) having 20 bases which correspond to the sequence of base position 71 through base position 90 and an oligoDNA (Gibco BRL) having 20 bases which are complementary to the sequence of base position 317 through base position 336 of HCV-J strain were used as primers. […]

[1] = test system: proximate viruses of the hepatitis C virus (viruses having (+)-chain single stranded RNA in their genome); settings: cited from earlier work
hepatitis C = settings: medical treatment of hepatitis C; cited from earlier work

T1 sequence (Q9WMX2 2420-3010): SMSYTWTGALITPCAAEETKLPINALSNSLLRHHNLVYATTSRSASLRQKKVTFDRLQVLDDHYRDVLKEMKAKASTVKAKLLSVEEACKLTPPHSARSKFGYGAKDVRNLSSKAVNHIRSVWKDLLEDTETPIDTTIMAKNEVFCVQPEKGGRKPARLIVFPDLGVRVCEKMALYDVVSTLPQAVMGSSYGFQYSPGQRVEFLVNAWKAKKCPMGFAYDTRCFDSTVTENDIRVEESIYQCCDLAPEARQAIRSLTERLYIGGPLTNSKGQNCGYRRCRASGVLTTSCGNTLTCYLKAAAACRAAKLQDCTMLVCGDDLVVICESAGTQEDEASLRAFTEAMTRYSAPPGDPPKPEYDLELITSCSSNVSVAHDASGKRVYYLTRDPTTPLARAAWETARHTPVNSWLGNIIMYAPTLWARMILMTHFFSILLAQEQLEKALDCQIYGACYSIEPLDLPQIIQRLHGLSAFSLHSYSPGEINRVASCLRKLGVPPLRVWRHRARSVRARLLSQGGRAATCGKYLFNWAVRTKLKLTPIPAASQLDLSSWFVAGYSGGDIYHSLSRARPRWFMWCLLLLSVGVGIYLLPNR

Compound | IC50 (HCV RNA polymerase) [µM] | yield of total RNA for each of the samples (injury on the cells) (MT-2C cells) | also measured
O=c1[nH]c(=O)n([C@@H]2O[C@H](COP(=O)(O)OP(=O)(O)OP(=O)(O)O)[C@@H](F)[C@H]2O)cc1F [Synthetic Example 13, 3′-deoxy-5,3′-difluorouridine 5′-triphosphate] | 1 |  | 
O=c1[nH]c(=O)n([C@@H]2O[C@H](CO)[C@@H](F)[C@H]2O)cc1F [Synthetic Example 2, 3′-deoxy-5,3′-difluorouridine] |  | little or no alteration | 
O=c1ccn([C@@H]2O[C@H](COP(=O)(O)OP(=O)(O)OP(=O)(O)O)[C@@H](F)[C@H]2O)c(=S)[nH]1 [Synthetic Example 19, 3′-deoxy-3′-fluoro-2-thiouridine 5′-triphosphate] | 3 |  | 
O=c1ccn([C@H]2O[C@@H](COP(=O)(O)OP(=O)(O)OP(=O)(O)O)[C@H](F)[C@@H]2O)c(=O)[nH]1 [Synthetic Example 21, 1-(3′-deoxy-3′-fluoro-β-L-ribofuranosyl)uracil 5′-triphosphate] | 3 |  | 
O=c1ccn([C@@H]2O[C@H](CO)[C@@H](F)[C@H]2O)c(=O)[nH]1 [Synthetic Example 1, 3′-deoxy-3′-fluorouridine] |  | little or no alteration | detection limit dilution (fold) of an HCV genome (Hepatitis C Virus (HCV); 1.0 μM added, FIG. 1, negative control detected up to 30-fold or 100-fold dilution): up to 3-fold or 10-fold; inhibitory activity on proximate viruses of the hepatitis C virus [1]: only a low inhibitory activity
O=c1[nH]c(=O)n([C@H]2O[C@@H](COP(=O)(O)OP(=O)(O)OP(=O)(O)O)[C@H](F)[C@@H]2O)cc1F [Synthetic Example 22, 1-(3′-deoxy-5,3′-fluoro-β-L-ribofuranosyl)uracil 5′-triphosphate] | 10 |  | 
O=c1ccn([C@@H]2O[C@H](COP(=O)(O)OP(=O)(O)OP(=O)(O)O)[C@@H](F)[C@H]2O)c(=O)[nH]1 [Synthetic Example 12, 3′-deoxy-3′-fluorouridine 5′-triphosphate] | 0.3 |  | 
O=c1ccn([C@H]2O[C@@H](CO)[C@H](F)[C@@H]2O)c(=O)[nH]1 [Synthetic Example 10, 1-(3′-deoxy-3′-fluoro-β-L-ribofuranosyl)uracil] |  | little or no alteration | detection of HCV genome in diluted RT product (Hepatitis C Virus (HCV); 1 μM added): could not be detected, except for one sample diluted to 10-fold; detection of HCV genome in diluted RT product (Hepatitis C Virus (HCV); 10 μM added): could not be detected, except for one sample diluted to 10-fold
O=c1[nH]c(=O)n([C@H]2O[C@@H](CO)[C@H](F)[C@@H]2O)cc1F [Synthetic Example 11, 1-(3′-deoxy-5,3′-difluoro-β-L-ribofuranosyl)uracil] |  | little or no alteration | detection of HCV genome in diluted RT product (Hepatitis C Virus (HCV); 1 μM added): could not be detected, except for one sample diluted to 10-fold; detection of HCV genome in diluted RT product (Hepatitis C Virus (HCV); 10 μM added): could not be detected, except for one sample diluted to 10-fold
interferon |  |  | efficacy (hepatitis C): not more than 30%
